# Laboratory results published in article PMC12827894, “Structure-guided design of picomolar-level macrocyclic TRPC5 channel inhibitors with antidepressant activity” (Acta Pharmaceutica Sinica. B, 2025).
# pIC50: −log10 of the molar value.
# Assays:
# [1] = target: T1, TRPC5 (Homo sapiens, UniProt Q9UL62); assay: cell-based
# T1 sequence (Q9UL62 1-973): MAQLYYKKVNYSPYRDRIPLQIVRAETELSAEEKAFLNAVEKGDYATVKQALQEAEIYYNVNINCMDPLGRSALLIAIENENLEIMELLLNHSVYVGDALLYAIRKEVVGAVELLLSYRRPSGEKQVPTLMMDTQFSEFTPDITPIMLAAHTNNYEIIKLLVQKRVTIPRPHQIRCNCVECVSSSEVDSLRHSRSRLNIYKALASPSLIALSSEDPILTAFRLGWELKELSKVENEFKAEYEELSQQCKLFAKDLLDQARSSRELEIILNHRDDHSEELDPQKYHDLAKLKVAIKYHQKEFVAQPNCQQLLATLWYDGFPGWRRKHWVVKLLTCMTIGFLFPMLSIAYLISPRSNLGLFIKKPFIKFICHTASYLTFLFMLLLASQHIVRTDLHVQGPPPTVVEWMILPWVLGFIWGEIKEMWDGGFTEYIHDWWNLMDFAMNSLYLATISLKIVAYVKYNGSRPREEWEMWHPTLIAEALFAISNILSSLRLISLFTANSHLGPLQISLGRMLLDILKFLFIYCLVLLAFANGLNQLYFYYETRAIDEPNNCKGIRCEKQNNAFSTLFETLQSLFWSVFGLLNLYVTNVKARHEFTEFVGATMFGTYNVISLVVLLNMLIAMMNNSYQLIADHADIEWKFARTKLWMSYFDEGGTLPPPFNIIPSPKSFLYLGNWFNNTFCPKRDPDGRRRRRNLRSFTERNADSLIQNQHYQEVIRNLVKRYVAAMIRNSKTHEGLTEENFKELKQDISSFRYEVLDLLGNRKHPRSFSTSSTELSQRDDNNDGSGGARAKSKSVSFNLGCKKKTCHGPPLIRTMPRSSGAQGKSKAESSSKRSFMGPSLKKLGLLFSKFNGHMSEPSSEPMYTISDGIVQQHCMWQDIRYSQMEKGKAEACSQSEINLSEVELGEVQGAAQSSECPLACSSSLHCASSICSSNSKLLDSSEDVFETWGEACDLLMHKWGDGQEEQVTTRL
# [2] = target: COX2 (Homo sapiens, UniProt P35354); assay: biochemical; details: read-out: Antagonist JDIC-127 @10 μmol/L
# Sequence of COX2 (P35354 18-604): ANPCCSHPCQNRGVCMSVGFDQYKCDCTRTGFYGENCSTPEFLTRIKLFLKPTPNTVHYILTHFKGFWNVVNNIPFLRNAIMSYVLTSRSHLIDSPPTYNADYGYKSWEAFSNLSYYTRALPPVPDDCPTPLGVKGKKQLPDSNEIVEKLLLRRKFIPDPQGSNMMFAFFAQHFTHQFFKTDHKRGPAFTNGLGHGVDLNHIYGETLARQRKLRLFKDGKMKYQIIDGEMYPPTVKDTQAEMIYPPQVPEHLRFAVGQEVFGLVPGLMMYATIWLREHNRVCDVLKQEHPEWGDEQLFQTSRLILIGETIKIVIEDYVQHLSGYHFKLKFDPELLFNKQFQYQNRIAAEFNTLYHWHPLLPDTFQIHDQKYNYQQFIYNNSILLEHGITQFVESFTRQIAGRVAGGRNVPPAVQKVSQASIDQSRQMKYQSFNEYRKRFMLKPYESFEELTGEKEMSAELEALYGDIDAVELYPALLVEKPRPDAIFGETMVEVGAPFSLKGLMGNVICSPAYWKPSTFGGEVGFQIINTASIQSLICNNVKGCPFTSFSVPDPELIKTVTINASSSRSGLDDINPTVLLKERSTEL
# [3] = target: T2, CB1 (Homo sapiens, UniProt P21554); assay: cell-based; format: cell-based
# T2 construct: purchased ICE Bioscience ICESTP™ SafetyOne44 Panel
# T2 sequence (P21554 whole entry): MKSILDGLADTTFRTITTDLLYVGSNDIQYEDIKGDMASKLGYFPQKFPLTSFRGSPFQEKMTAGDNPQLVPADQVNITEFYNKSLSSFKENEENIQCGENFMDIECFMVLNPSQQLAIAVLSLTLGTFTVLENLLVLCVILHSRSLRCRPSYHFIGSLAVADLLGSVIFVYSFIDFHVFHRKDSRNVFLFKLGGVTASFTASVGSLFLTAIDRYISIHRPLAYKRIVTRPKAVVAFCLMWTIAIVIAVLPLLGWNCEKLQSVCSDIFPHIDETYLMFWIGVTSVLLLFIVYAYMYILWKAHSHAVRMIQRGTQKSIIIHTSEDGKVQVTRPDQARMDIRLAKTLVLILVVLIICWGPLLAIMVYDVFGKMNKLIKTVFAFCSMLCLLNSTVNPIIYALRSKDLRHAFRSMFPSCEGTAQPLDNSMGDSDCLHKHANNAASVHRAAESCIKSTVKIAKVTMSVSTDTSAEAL
# [4] = in vitro; format: in vitro ADME; details: not told
# Excerpt: Table 1 Pharmacokinetic properties of JDIC-127. | column: ER; Papp (cm/s)
# [5] = target: T3, A2A (Homo sapiens, UniProt P29274); format: cell-based
# T3 construct: purchased ICE Bioscience ICESTP SafetyOne44 Panel
# T3 sequence (P29274 whole entry): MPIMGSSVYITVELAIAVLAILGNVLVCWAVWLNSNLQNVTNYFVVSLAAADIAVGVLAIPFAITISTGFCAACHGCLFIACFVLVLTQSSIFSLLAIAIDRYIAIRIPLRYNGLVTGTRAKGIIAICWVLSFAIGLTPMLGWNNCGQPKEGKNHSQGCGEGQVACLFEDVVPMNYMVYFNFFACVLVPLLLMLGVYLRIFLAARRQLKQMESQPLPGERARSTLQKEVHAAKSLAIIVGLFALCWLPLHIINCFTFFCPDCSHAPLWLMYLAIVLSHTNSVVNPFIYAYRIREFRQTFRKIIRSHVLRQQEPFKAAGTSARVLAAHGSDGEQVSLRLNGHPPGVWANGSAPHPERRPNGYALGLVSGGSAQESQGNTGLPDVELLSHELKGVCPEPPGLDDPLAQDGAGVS
# [6] = target: T4, 5-HT3A (Homo sapiens, UniProt P46098); format: cell-based
# T4 construct: ICE Bioscience ICESTP SafetyOne44 Panel
# T4 sequence (P46098 24-478, species assumed): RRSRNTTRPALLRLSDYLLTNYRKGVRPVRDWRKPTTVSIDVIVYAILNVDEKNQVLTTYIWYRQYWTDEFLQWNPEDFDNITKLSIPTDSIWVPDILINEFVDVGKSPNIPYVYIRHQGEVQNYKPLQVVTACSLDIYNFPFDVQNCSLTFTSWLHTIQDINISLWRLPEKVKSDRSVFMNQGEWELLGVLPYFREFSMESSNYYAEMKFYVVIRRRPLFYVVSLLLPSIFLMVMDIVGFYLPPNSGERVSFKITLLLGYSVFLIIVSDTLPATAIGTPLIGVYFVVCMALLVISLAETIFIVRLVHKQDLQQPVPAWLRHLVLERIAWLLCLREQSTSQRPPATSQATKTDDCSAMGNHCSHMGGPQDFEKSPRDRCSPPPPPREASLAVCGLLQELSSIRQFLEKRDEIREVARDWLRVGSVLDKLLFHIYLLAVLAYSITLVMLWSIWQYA
# [7] = target: T5, NET (Homo sapiens, UniProt P23975); assay: SafetyOne44 panel: NET; format: cell-based; details: NET, 10 μmol/L; read-out: Antagonist JDIC-127 @10 μmol/L
# T5 construct: ICE Bioscience ICESTP SafetyOne44 Panel
# T5 sequence (P23975 whole entry): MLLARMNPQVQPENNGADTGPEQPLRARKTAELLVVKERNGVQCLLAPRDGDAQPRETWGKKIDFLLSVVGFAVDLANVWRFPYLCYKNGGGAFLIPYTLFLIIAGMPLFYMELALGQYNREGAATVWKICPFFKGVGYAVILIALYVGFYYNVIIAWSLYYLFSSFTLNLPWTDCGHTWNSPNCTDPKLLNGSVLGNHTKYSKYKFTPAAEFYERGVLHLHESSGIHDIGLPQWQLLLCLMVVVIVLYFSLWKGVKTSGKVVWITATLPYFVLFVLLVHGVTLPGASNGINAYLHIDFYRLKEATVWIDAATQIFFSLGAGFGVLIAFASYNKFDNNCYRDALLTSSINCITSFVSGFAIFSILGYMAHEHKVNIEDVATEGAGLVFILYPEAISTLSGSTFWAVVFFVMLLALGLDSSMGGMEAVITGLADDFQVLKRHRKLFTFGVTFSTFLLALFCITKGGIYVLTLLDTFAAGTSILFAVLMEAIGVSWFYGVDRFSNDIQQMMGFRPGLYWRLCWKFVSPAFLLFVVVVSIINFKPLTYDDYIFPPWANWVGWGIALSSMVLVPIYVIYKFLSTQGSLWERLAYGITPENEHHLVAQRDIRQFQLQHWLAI
# [8] = target: T6, D2 (Homo sapiens, UniProt P14416); assay: cell-based; format: cell-based
# T6 construct: purchased ICE Bioscience ICESTP™ SafetyOne44 Panel
# T6 sequence (P14416 whole entry): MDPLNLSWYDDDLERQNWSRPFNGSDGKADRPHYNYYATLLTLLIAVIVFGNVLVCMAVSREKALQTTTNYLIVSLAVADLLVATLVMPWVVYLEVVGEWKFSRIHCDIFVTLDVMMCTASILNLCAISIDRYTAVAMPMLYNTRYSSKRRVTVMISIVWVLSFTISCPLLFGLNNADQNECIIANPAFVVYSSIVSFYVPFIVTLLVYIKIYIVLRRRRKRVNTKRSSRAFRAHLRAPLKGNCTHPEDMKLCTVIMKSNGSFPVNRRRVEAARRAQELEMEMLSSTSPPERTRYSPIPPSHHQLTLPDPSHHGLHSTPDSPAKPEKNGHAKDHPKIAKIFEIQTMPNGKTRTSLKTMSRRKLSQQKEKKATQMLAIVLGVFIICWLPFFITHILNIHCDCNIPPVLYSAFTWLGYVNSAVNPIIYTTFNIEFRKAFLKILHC
# [9] = target: T7, TRPC1/4 (Homo sapiens, UniProt P48995+Q9UBN4); assay: Whole-cell patch-clamp, TRPC1/4 heteromer, 100 nmol/L EA; format: cell-based; details: read-out: IC50, TRPC1/4
# T7 construct: expressed in transfected cells; host or cells: HEK293T
# Excerpt: Given that TRPC4 and TRPC5 are highly similar and often form heteromeric with TRPC1, we evaluated JDIC-127's activity on TRPC4, TRPC1/4, and TRPC1/5 using whole-cell patch-clamp recordings under agonist stimulation with 100 nmol/L EA in HEK293T cells. […].
# For electrophysiological activity testing of compounds against TRPC4 and TRPC5, stably expressed TRPC5 or TRPC4 cells were used for whole-cell patch-clamp recordings, employing a HEKA EPC10 amplifier and […] software (https://www.heka.com/downloads/downloads_main.html#down_patchmaster). Prior to recording, cells were induced with 1 μg/mL tetracycline for 24 h. For TRPC1/4 or TRPC1/5 heteromers, plasmids TRPC1 and TRPC5 or TRPC1 and TRPC4 were co-transfected into HEK293T cells. After 48 to 72 h of transfection, testing was performed. A 1-s ramp protocol from −100 to +100 mV at 0.2 Hz was applied, as previously described. The extracellular solution consisted of 140 mmol/L NaCl, 1 mmol/L MgCl2, 2 mmol/L CaCl2, 10 mmol/L Hepes, 5 mmol/L KCl, and 10 mmol/L D-glucose, with pH adjusted to 7.4 using NaOH. […] The half-maximal inhibitory concentration (IC50) of drugs was determined by recording currents at a +100 mV pulse and analyzing current amplitudes at varying drug concentrations, with IC50 values calculated using the Hill equation. […]
# [10] = target: T1, TRPC5; assay: Whole-cell patch-clamp, TRPC5, Ca2+-activated condition; format: cell-based; details: read-out: IC50, TRPC5, endogenous Ca2+-evoked activation
# [11] = target: T8, GR (Homo sapiens, UniProt P04150); assay: SafetyOne44 panel: GR; format: cell-based
# T8 construct: purchased ICE Bioscience ICESTP™ SafetyOne44 Panel
# T8 sequence (P04150 whole entry): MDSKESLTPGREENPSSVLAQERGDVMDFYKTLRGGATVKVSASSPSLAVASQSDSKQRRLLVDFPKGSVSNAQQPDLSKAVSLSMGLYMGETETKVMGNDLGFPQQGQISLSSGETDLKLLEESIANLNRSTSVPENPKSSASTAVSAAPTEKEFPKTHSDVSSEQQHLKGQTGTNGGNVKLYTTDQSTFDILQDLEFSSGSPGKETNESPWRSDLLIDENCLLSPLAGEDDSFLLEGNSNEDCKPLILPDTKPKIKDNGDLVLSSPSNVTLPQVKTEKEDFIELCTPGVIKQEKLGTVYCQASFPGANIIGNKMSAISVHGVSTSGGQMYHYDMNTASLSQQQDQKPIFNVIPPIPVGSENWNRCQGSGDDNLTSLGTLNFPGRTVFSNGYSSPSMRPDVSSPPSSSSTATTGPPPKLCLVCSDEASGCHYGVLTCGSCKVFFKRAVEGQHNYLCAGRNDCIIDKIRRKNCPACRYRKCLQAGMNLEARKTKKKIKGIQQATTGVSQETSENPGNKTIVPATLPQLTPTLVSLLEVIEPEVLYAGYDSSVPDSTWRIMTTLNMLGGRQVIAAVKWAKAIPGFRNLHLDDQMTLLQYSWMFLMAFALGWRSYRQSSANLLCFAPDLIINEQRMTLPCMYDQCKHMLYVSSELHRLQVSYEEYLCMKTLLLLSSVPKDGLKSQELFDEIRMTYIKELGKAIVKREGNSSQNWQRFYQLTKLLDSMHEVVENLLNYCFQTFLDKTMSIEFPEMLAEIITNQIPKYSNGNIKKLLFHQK
# [12] = target: T9, MAO A (Homo sapiens, UniProt P21397); assay: SafetyOne44 panel: MAO A; format: biochemical; details: 10 μmol/L, read-out: Antagonist JDIC-127 @10 μmol/L
# T9 construct: purchased ICE Bioscience ICESTP™ SafetyOne44 Panel
# T9 sequence (P21397 whole entry): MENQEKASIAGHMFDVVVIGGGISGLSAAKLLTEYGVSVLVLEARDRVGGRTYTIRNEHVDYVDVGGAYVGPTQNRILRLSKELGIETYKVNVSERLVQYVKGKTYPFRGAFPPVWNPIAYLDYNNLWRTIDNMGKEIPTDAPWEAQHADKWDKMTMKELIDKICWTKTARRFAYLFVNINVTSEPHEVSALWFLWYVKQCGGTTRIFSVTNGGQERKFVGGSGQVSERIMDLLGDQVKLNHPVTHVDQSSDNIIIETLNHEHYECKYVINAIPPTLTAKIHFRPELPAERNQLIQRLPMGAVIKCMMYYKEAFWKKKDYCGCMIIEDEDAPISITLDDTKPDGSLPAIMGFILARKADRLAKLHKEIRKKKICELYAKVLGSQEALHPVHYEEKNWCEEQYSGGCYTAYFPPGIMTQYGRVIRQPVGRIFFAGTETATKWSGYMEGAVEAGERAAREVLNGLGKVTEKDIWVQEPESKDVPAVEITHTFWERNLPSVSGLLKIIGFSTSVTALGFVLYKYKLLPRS
smiles,measurement,setting,value
O=c1c2c3nc(n2Cc2ccc(Cl)cc2)Oc2ccc(F)c(c2)OCCCCCCn3c(=O)n1CCCO [JDIC-127],pIC50,"[1]; HEK293T, 100 nmol/L Englerin A, read-out: IC50, inhibition of TRPC5, calcium flux assay",10.18
same,inhibition of TRPC5 calcium influx,[1]; at concentrations of 1.4 nmol/L or higher,More than 80%
same,fold increase in activity (vs compound 6),"[1]; calcium flux, SAR",approximately 15 fold
same,inhibition at 10 µM,[2],1.38%
same,Agonist JDIC-127 @10 μmol/L,"[3]; CB1, agonist mode",33.32%
same,inhibition at 10 µM,"[3]; CB1, antagonist mode, 10 μmol/L, read-out: Antagonist JDIC-127 @10 μmol/L",-9.83%
same,ER,[4],1.45
same,Papp,[4],1.51 ×10⁻⁶ cm/s
same,Agonist JDIC-127 @10 μmol/L,[5]; agonist mode,–1.55%
same,Antagonist JDIC-127 @10 μmol/L,[5]; antagonist mode,–2.78%
same,Agonist JDIC-127 @ 5 μmol/L,[6]; agonist mode,0.39%
same,Antagonist JDIC-127 @5 μmol/L,[6]; antagonist mode,17.73%
same,inhibition at 10 µM,[7],-5.84%
same,Agonist JDIC-127 @10 μmol/L,"[8]; D2, agonist mode",–9.18%
same,inhibition at 10 µM,"[8]; D2, antagonist mode, 10 μmol/L, read-out: Antagonist JDIC-127 @10 μmol/L",-1.55%
same,pIC50,[9],8.73
same,pIC50,[10],11.85
same,Agonist JDIC-127 @10 μmol/L,[11]; agonist mode,0.05%
same,inhibition at 10 µM,"[11]; antagonist mode, 10 μmol/L, read-out: Antagonist JDIC-127 @10 μmol/L",4.73%
same,inhibition at 10 µM,[12],15.5%
